Patent US20180360972A1, “THERAPEUTIC COMPOUNDS” (REGENTS OF THE UNIVERSITY OF MINNESOTA, priority 2017, published 2018)
Entries after “also recorded” stand apart in the source; their conditions may differ. Square brackets hold non-standard residues; d marks the D form. Peptide text beside a SMILES is read from it.

Legend:
hMC4R [1] = molecular target: T1, hMC4R (Homo sapiens, UniProt P32245); test: cAMP Signaling | EC50 (nM)
T1 construct: Flag; expressed in transfected cells
Method: Table printed on a drawing sheet, Figure 20
The cAMP signaling potency was determined by AlphaScreen™ assays. […] The reported errors are the standard error of the mean (SEM) determined from at least three independent experiments. Changes less than 3-fold were considered to be within the inherent experimental assay error.
Target sequence in this assay (P32245 whole entry, looked up): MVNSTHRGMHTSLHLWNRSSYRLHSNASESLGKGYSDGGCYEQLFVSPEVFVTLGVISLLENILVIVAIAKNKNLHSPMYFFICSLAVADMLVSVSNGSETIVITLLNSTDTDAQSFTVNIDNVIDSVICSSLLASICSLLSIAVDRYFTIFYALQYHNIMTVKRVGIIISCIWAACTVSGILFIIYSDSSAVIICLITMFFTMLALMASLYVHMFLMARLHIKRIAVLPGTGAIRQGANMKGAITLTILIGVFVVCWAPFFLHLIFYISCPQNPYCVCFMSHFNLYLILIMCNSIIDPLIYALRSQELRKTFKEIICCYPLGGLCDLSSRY

hMC4R [2] = molecular target: T1, hMC4R; test: β-Arrestin Recruitment | EC50 (nM)
Target sequence in this assay (P32245 whole entry, looked up): as above

hMC4R [3] = molecular target: T1, hMC4R; test: PRESTO-Tango β-arrestin recruitment assay; type: cell-based
Method: The PRESTO-Tango technology is an open-source resource that has been utilized to identify ligands for orphan receptors based on β-arrestin recruitment.
The plasmids and assay technology was kindly provided by the Bryan Roth laboratory (University of North Carolina at Chapel Hill) and are now available through ADDGENE (Kit # 1000000068).
The first day of the assay, HTLA cells were plated at approximately 1×10^6 cells per 10 cm plate and grown to 20-40% confluency. […] The third day, cells were removed from 10 cm plates using Gibco® Versene solution and pelleted by centrifugation (Sorvall Super T21 high speed centrifuge, swinging bucket rotor) at 800 rpm for five minutes at room temperature. Cells were manually counted on a hemocytometer and resuspended in 1% dialyzed FBS and 1% penicillin/streptomycin in DMEM to a final concentration of 400,000 cells/mL. […] Stimulated cells were incubated for 18 hours in 5% CO2 at 37° C. On the fifth day, the assay buffer and cell medium was removed by aspiration. […] After incubation, luminescence was then read on an EnSpire™ Alpha plate reader using a pre-normalized assay protocol for luminescence set by the manufacturer. Dose response curves were analyzed using the PRISM program (v4.0; GraphPad Inc.).
Target sequence in this assay (P32245 whole entry): as the sequence (P32245 whole entry, looked up) above

[4] = molecular target: mMC4R-NanoLuc and mMC4R-HaloTag homodimer (Mus musculus, UniProt P56450); test: NanoBRET ligand-dependent modulation of BRET signal; details: for change in BRET signal (in words): 10^−5, 10^−7 and 10^−9 M vs assay buffer
Sequence of mMC4R-NanoLuc and mMC4R-HaloTag homodimer (P56450 whole entry): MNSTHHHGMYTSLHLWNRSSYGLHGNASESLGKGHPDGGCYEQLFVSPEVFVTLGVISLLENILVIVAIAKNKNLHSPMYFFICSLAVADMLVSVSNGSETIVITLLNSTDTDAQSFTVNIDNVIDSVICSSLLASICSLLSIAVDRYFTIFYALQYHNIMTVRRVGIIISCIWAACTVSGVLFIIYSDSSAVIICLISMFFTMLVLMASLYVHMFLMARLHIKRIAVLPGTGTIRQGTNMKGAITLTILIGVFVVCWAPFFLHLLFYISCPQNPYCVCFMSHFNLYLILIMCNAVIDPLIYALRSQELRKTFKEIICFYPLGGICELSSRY
Sequence of mMC4R-NanoLuc and mMC4R-HaloTag homodimer (P56450 whole entry): as above
Method: On the first day, cells were plated into 6 well plates in the morning. In the afternoon of the same day, cells were transiently transfected with mMC4R-NanoLuc® fusion protein and the MC4R-HaloTag® fusion protein by adding FuGene6 Transfection (8 μL/well, Promega), DNA (2 μg/well) in OptiMem medium (Invitrogen) at a total volume of 100 μL/well. […] Cells were incubated with transfection reagent overnight at 5% CO2 at 37° C.
This provides the background signal and was subtracted from the final experimental signal. Plates were then developed 48 to 60 hours after transfection. Two hours before the plates were developed, 10 μL of a 10× aliquot of the ligand diluted in assay buffer was added to each well to yield the final in well concentration (10^−5, 10^−7, or 10^−9M) of each compound. For the assay buffer control, 10 μL of assay buffer was added instead of compound. […] The standard error of the mean (SEM) was derived from at least three independent experiments.

hMC4R [5] = molecular target: T1, hMC4R; test: AlphaScreen cAMP functional bioassay, hMC4R; type: cell-based
Method: Upon agonist stimulation, melanocortin receptors are known to signal through a Gαs-protein mediated signaling pathway that results in intracellular cAMP accumulation.
Stable populations were selected for using G418 selection (0.7-1.0 mg/mL) and used in bioassays unless indicated otherwise. In vitro experimental ligands were dissolved to a 10^−2 M stock in DMSO and stored at −20° C. Subsequent dilutions were performed in each assay's specific buffer to achieve the final concentration in the well. The ligands were assayed as TFA salts.
AlphaScreen cAMP Functional Bioassay
The AlphaScreen® assay was performed as described by manufacturer.
Cells were removed from plates using Gibco® Versene solution and pelleted by centrifugation (Sorvall Super T21 high speed centrifuge, swinging bucket rotor) at 800 rpm for five minutes. […] A 10 μL aliquot of cell suspension was counted manually using a hemocytometer after addition of Trypan blue dye (BioRad). Cells were again pelleted by centrifugation, and DPBS was gently aspirated. The pelleted cells were then resuspended in a solution of freshly made stimulation buffer (Hank's Balanced Salt Solution [HBSS 10× [−] sodium bicarbonate] and [−] phenol red, Gibco®], 0.5 mM isobutylmethylxanthine [IBMX], 5 mM HEPES buffer solution [1M, Gibco®], 0.1% bovine serum albumin [BSA] in Milli-Q water, pH=7.4) and anti-cAMP acceptor beads (1.0 unit per well, AlphaScreen®). […] The cells were then stimulated with ligand diluted in stimulation buffer to achieve their final concentrations in the well ranging from 10^−13 to 10^−4 M. The stimulated plates were incubated in a dark laboratory drawer at room temperature for two hours.
Meanwhile, a biotinylated cAMP/streptavidin donor bead working solution was made by adding biotinylated cAMP (1 Unit/well, AlphaScreen®) and streptavidin donor beads (1 Unit/well, AlphaScreen®) to a lysis buffer (10% Tween-20, 5 mM HEPES buffer solution [1M, Gibco®], 0.1% bovine serum albumin [BSA] in Milli-Q water, pH=7.4). After the two hour stimulation, the biotinylated cAMP/Streptavidin donor bead working solution was added to each well under green light and mixed well by pipetting up and down. The cells were incubated for another two hours at room temperature in a dark drawer at room temperature. The plate was then read on an EnSpire™ Alpha plate reader using a pre-normalized assay protocol set by the manufacturer. Assays were performed with duplicate data points on each plate and repeated in at least three independent experiments.
Dose response curves were analyzed using the PRISM program (v4.0; GraphPad Inc.).
Target sequence in this assay (P32245 whole entry): as the sequence (P32245 whole entry, looked up) above

wild type mice = test: ICV administration, conventional cages, wild type mice; type: in vivo; details: preliminary conventional cage experiments; fasting paradigm
Method: (§1) All experiments were performed in accordance with the Institutional Animal Care and Use Committee (IACUC) at the University of Minnesota. Female and male littermates with mixed background from C57BL/6J and 129/Sv inbred strains were 8 weeks old at the time of surgeries. Mice were individually housed after surgeries and for the remainder of the experiment. Mice were maintained on a 12 hr light/dark cycle (Lights off was at 11:59 AM) in a temperature controlled room (23-25° C.). In the nocturnal feeding paradigm, mice had free access to normal chow (Harlan Teklad 2018 Diet: 18.6% crude protein, 6.2% crude fat, 3.5% crude fiber, with energy density of 3.1 kcal/g). […] Mice had free access to tap water throughout all the experiments. The cannula placement validation studies and conventional cage studies were performed in standard mouse polycarbonate conventional cages provided by University of Minnesota's Research Animal Resources (RAR). Weekly cage changes were conducted by lab research staff.
(§2) Mice were anesthetize with a mixture of ketamine (100 mg/kg) and xylazine (5 mg/kg) and were positioned in a stereotaxic apparatus (David Kopf Instruments). A 26-gauge cannula (Cat# 81C315GS4SPC; PlasticsOne, Roanoke, Va.) was inserted in the lateral cerebral ventricle at the coordinates 1.0 mm lateral and 0.46 mm posterior to bregma and 2.3 mm ventral to the skull (Franklin, K. B. J. & Paxinos, G. The Mouse Brain in Stereotaxic Coordinates. (Academic Press, 1997)).
(§3) Each mouse was administered hPYY and saline on different days following a crossover design in the nocturnal feeding paradigm. In the nocturnal paradigm, compound is administered 2 hours prior to lights out with free access to food and water throughout the entire experiment. There was at least a 4 day washout period between administration to ensure that normal feeding patterns and body weight returned. Food intake and body weight were manually measured 2, 4, and 6 hours after hPYY or saline administration. A mouse with a validated cannula placement for the TSE cage experiments consumed at least 1.0 g more after hPYY administration compared to saline administration 4 hours post-administration.
(§4) As stated above, conventional cage experiments were performed in standard mouse polycarbonate conventional cages. […] All experiments followed a cross-over paradigm in which the mouse received saline and compound on different days with a washout period in between each treatment. Statistical analysis was performed using SPSS V23 software (IBM) using a multivariate general linear model followed by a Bonferroni's post hoc test. Results are presented as Mean±SEM. Statistically significant was considered p<0.05.

male wild type mice = type: in vivo; details: nocturnal paradigm; 5.0 or 2.5 nmols CJL-1-124
Method: as §1, §2, §3, §4

male MC3RKO mice = test: ICV administration, TSE metabolic cages, male MC3RKO mice; type: in vivo; details: nocturnal paradigm; 2.5 to 5 nmols
Method: as §1, §2, §4
In order to more clearly understand the effects of the biased agonism at the MC4R, the effects of administration of CJL-5-58 was explored in MC3R knockout (KO) mice and MC4RKO mice. […] Adverse reactions included two mice dying after the 5 nmol dose. […] The large error in activity may serve as an indication of toxicity. It is currently difficult to decipher whether the adverse reactions observed are due to paradigm effects, genotype difference, or compound toxicity.

male MC4RKO mice = test: ICV administration, conventional cages, male MC4RKO mice; type: in vivo; details: ICV 2.5 to 5 nmols; conventional cages
Method: as §1, §2, §4
In male MC4RKO mice, CJL-5-58 was administered at 5 nmols in both a nocturnal paradigm and a fasting-refeeding paradigm in standard conventional cages (FIG. 15). The dose was well handled in the nocturnal paradigm, but minimal effect was observed.

CC(=O)N[C@@H](Cc1c[nH]cn1)C(=O)N[C@H](Cc1ccccc1)C(=O)N[C@@H](CCCNC(=N)N)C(=O)N[C@@H](Cc1c[nH]c2ccccc12)C(=O)N1CCC[C@H]1C(=O)NCC(=O)N1CCC[C@H]1C(=O)NCC(=O)N1CCC[C@H]1C(=O)NCC(=O)N1CCC[C@H]1C(=O)NCC(=O)N1CCC[C@H]1C(=O)NCC(=O)N1CCC[C@H]1C(=O)NCC(N)=O [CJL5-35-1, Ac-His-DPhe-Arg-Trp-(Pro-Gly)6-NH2] (Ac-H[dF]RWPGPGPGPGPGPG-NH2)
EC50 (hMC4R [1]): 5.5 ± 0.7 nM | EC50 (hMC4R [2]): 1600 ± 600 nM

CC(=O)N[C@@H](Cc1c[nH]cn1)C(=O)N[C@H](Cc1ccccc1)C(=O)N[C@@H](CCCNC(=N)N)C(=O)N[C@@H](Cc1c[nH]c2ccccc12)C(=O)N1CCC[C@H]1C(=O)NCC(=O)N1CCC[C@H]1C(=O)NCC(=O)N1CCC[C@H]1C(=O)NCC(=O)N1CCC[C@H]1C(=O)NCC(=O)N1CCC[C@H]1C(=O)NCC(=O)N1CCC[C@H]1C(=O)NCC(=O)N[C@@H](Cc1c[nH]cn1)C(=O)N[C@H](Cc1ccccc1)C(=O)N[C@@H](CCCNC(=N)N)C(=O)N[C@@H](Cc1c[nH]c2ccccc12)C(N)=O [CJL-1-31, Ac-His-DPhe-Arg-Trp-(Pro-Gly)6-His-DPhe-Arg-Trp-NH2] (Ac-H[dF]RWPGPGPGPGPGPGH[dF]RW-NH2)
EC50 (hMC4R [1]): 0.95 ± 0.08 nM | EC50 (hMC4R [2]): 1900 ± 600 nM

N=C(N)NCCC[C@H](NC(=O)[C@@H](Cc1ccccc1)NC(=O)[C@H](Cc1c[nH]cn1)NC(=O)CNC(=O)[C@@H]1CCCN1C(=O)CNC(=O)[C@@H]1CCCN1C(=O)CNC(=O)[C@@H]1CCCN1C(=O)CNC(=O)[C@@H]1CCCN1C(=O)CNC(=O)[C@@H]1CCCN1C(=O)CNC(=O)[C@@H]1CCCN1)C(=O)N[C@@H](Cc1c[nH]c2ccccc12)C(N)=O [CJL-1-41, (Pro-Gly)6-His-DPhe-Arg-Trp-NH2] (H-PGPGPGPGPGPGH[dF]RW-NH2; N-terminus assumed)
EC50 (hMC4R [1]): 1.1 ± 0.07 nM | EC50 (hMC4R [2]): 1500 ± 500 nM

CC(=O)N[C@@H](Cc1c[nH]cn1)C(=O)N[C@H](Cc1ccc2ccccc2c1)C(=O)N[C@@H](CCCNC(=N)N)C(=O)N[C@@H](Cc1c[nH]c2ccccc12)C(N)=O [CJL-1-80, Ac-His-DNal(2′)-Arg-Trp-NH2]
β-arrestin response compared to maximal efficacy of NDP-MSH (hMC4R [3]; at 10 μM): 30% | change in BRET signal (in words) [4]: no significant changes in BRET signal

CC(=O)N[C@@H](Cc1cnc[nH]1)C(=O)N[C@H](Cc1ccc2ccccc2c1)C(=O)N[C@@H](CCCNC(=N)N)C(=O)N[C@@H](Cc1c[nH]c2ccccc12)C(=O)NCCCOCCOCCOCCCNC(=O)COCC(=O)N[C@@H](Cc1cnc[nH]1)C(=O)N[C@H](Cc1ccccc1)C(=O)N[C@@H](CCCNC(=N)N)C(=O)N[C@@H](Cc1c[nH]c2ccccc12)C(N)=O [CJL-1-124, Ac-His-DNal(2′)-Arg-Trp-(PEDG20)-His-DPhe-Arg-Trp-NH2]
cAMP agonist potency (in words) (hMC4R [5]; HEK293 cells stably expressing hMC4R): single digit nanomolar agonists | adverse effects (wild type mice): strong adverse effects | adverse reactions / toxicity (male wild type mice): some signs of adverse reactions observed at higher 5 nmol dose; also recorded: Some toxicity was observed | adverse reactions / toxicity (male MC3RKO mice): some signs of toxicity were observed; also recorded: Some toxicity was observed | toxicity (male MC4RKO mice): some signs of toxicity were observed; also recorded: Some toxicity was observed | reduction in BRET signal compared to basal signal ([4]; ligand at 10 μM): ~8%

CC(=O)N[C@@H](Cc1c[nH]cn1)C(=O)N[C@H](Cc1ccc2ccccc2c1)C(=O)N[C@@H](CCCNC(=N)N)C(=O)N[C@@H](Cc1c[nH]c2ccccc12)C(=O)NCCCOCCOCCOCCCNC(=O)COCC(=O)N[C@@H](Cc1c[nH]cn1)C(=O)N[C@H](Cc1ccc2ccccc2c1)C(=O)N[C@@H](CCCNC(=N)N)C(=O)N[C@@H](Cc1c[nH]c2ccccc12)C(N)=O [CJL-1-140]
cAMP accumulation of that seen with NDP-MSH (hMC4R [5]; at 10 μM): 70% | β-arrestin recruitment efficacy (in words) (hMC4R [3]; relative to NDP-MSH control, up to 10 μM): equal or lower β-arrestin recruitment | change in BRET signal (in words) [4]: no significant changes in BRET signal

CC(=O)N[C@@H](Cc1c[nH]cn1)C(=O)N[C@H](Cc1ccccc1)C(=O)N[C@@H](CCCNC(=N)N)C(=O)N[C@@H](Cc1c[nH]c2ccccc12)C(=O)NCCCOCCOCCOCCCNC(=O)COCC(N)=O [CJL-5-35-4, reference compound]
fold increase in cAMP potency compared to CJL-1-14 (hMC4R [5]; vs monovalent tetrapeptide CJL-1-14): 3 fold | fold increase in β-arrestin recruitment compared to CJL-1-14 (hMC4R [3]; vs tetrapeptide CJL-1-14): 5 fold

CC(=O)N[C@@H](Cc1c[nH]cn1)C(=O)N[C@H](Cc1ccccc1)C(=O)N[C@@H](CCCNC(=N)N)C(=O)N[C@@H](Cc1c[nH]c2ccccc12)C(=O)NCCCOCCOCCOCCCNC(=O)COCC(=O)NCCCOCCOCCOCCCNC(=O)COCC(=O)N[C@@H](Cc1c[nH]cn1)C(=O)N[C@H](Cc1ccccc1)C(=O)N[C@@H](CCCNC(=N)N)C(=O)N[C@@H](Cc1c[nH]c2ccccc12)C(N)=O [CJL-5-72, Ac-His-DPhe-Arg-Trp-(PEDG20)-(PEDG20)-His-DPhe- Arg-Trp-NH2]
EC50 (hMC4R [1]): 1.2 ± 0.3 nM | EC50 (hMC4R [2]): 280 ± 40 nM
